The values that follow come from patent US11129782B2, “Derivatives of PPD useful for coloring hair and skin” (National University of Singapore, priority 2017, dated 2021).

In one series the test system is IL-8. The series can be described thus: IL-8 ELISA on THP-1 cell supernatants. The format is cell-based, human. As to conditions: preliminary ELISA, CV75. As to the method: For cytokine profiling in THP-1, supernatants from wells were collected and then used for cytokine analysis by a Chemokine immunosorbent assay Bio-legend ELISA Max kit. The levels of available IL-8 protein from THP-1 cell supernatants was estimated using this kit which are regulated upon activation of THP-1 model. Surface receptor expression of human CD-86, CD-54, MHC-I and IL-T3 were analyzed by flow cytometry using standard BD FACS analyzer with PE and FITC fluorescent labeled antibodies from Biolegend and e Bioscience.
In order to understand the effect of modified PPD hairdyes on THP-1 immune sensitization, a certain degree of Cytotoxicity at CV75% viable where 25% cell death is required before evaluation of supernatants in THP-1 models for expression of cytokine IL-8 and receptor expression of CD86, CD54, MHC-I and IL-T3 surface receptors upon treatment with standard PPD and modified hair dye compounds. Most allergens show a specific dose-dependent alteration of CD86 and/or CD54 expression or secretion of cytokine profiles. But depending on chemical, the alteration pattern may vary.
On the technique in general: ELISA stands for enzyme-linked immunosorbent assay.

Series [1] can be described thus: Skin permeation in vertical Franz diffusion cells. The format is in vitro ADME, porcine. As to conditions: 8 h; for % Parent compound Penetrated (mean) / % converted to metabolite (mean) / recovery at 8 h, 1 % w/v: 1% W/V applied; for recovery at 8 h, 1 % w/v: pig, read-out: % Parent compound Recovery (mean); for Penetration profile PPD vs derivatives (times less than PPD): ratio of PPD penetration to that of the compound. How it is done:
Porcine ears were generously provided by the NUS Department of Surgery. The ears were frozen at −80° C. until use (up to 3 months) and thawed at room temperature on the day preceding the experiment. Prior to the experiment, the skin was separated from the cartilage and dermatomed to a thickness of ˜1.0 mm using an Acculan™ 3Ti dermatome (Aesculap, Inc., B. Braun, USA).
The PPD and derivatives were dissolved in deionized water at 1% w/v. The PPD and PPD derivatives 1-5 solutions were purged with argon gas to minimize oxidation of the donor solution.
Skin penetration studies were carried out using vertical Franz diffusion cells (PermeGear, USA) immersed in a 37° C. water bath. The donor and receptor volumes were 900 µL and 5 mL, respectively; the mean surface area of penetration was 0.64 cm^2. Upon insertion of the skin pieces into the Franz cells, the skin was equilibrated for 45 min with PBS in the receptor compartment. After equilibration, the skin's trans-epidermal water loss (TEWL) was measured using an Aquaflux AF300 (Biox, UK) to assess the integrity of the skin's stratum corneum barrier. The donor solution, consisting of PPD or derivative 1-5 (n=3 Franz cells each), was then added to the donor compartment and the penetration experiments were conducted for 8 h. The receptor solutions were continuously stirred with magnetic stirrers. At fixed time points, aliquots of 200 μL were taken from the receptor solution of each cell and the receptor solution topped up with 200 μL of fresh PBS. At the end of the experiment, the donor and receptor solutions were removed and the cells dismantled. For the purpose of mass balance on the PPD, PPD derivatives 1-5 the skin pieces and swabs of their outer surfaces were collected and stored in acetonitrile for PPD or derivative 1-5 extraction. The donor solution as well as PBS used to thoroughly wash each part of the Franz cells were also collected.
PPD, PPD derivatives 1-5 and metabolite concentrations in all permeation and mass balance samples were measured by LCMS. PPD steady state fluxes and permeability coefficients were calculated by fitting the solution to Fick's second law of diffusion at the steady state to the linear part of each experimental cumulative amount curve.
The validated method LCMS was applied to quantify PPD, PPD derivative 1-5 and metabolites from skin permeation study samples. FIGS. 3 and 4 show LCMS spectra for the identification of PPD and PPD derivatives 1 and 2 and metabolites from skin permeation study experiment.

For a further series, the system named is HaCaT cells. The series can be described thus: In vitro cell cytotoxicity (MTT) assay on HaCaT cells. The format is cell-based, human. To be noted: 72 h incubation, MTT. From the text:
HaCaT (human, adult, low calcium, high temperature, human adult skin keratinocytes) cells were obtained from the IMB (Institute of Medical Biology) Skin Cell Bank. Fetal bovine serum (FBS), Dulbecco's minimum essential medium (DMEM) and trypsin EDTA solution were purchased from GE healthcare life sciences, Utah. Penicillin/streptomycin, dimethyl sulfoxide (DMSO), and phosphate buffered saline (PBS) were from Fisher Scientific (Singapore). Para-phenylenediamine (PPD) was purchased from Sigma Aldrich (Singapore). PPD analogues such as Dimer, trimer, ethyl hexyl para-phenylenediamine (EHPPD), hexyl para-phenylenediamine (HPPD), Bandrowski base (BB) were synthesized in house.
Cell viability was essentially determined using the MTT assay as described in the literature. The HaCaT cells were grown in DMEM with 10% FBS and 1% penicillin/streptomycin. The cells in T-75 cm^2 culture flasks were incubated with 5% CO2 at 37° C. in a humidified incubator. The HaCaT cells were grown to expected confluency and then they were harvested by trypsinizing the cell with 0.25% trypsin/EDTA and incubated at 37° C. for 5 min to obtain the complete cell detachment. After the incubation, cell pellets were resuspended, and washed twice with 1×PBS. The cell suspension in 1×PBS was counted and adjusted to 1×10^5/mL. A HaCaT keratinocyte suspension (100 μL in 1×PBS) with a cell concentration of 1×10^5 cells/mL) and a test solution (100 μL in milli-Q water) were combined in each well of two 96-well plates. Test solutions with a desired concentration were prepared by serial dilutions of the stock solutions with 1×PBS.
For the cytotoxicity experiment, cells were seeded at a density of 5×10^3 in 200 ul of medium into each well of 96-well plates. Cells were seeded as three sets of four replicates for each concentration. After 24 h of incubation, the cells were washed with PBS and cultured for 72 h with 200 ul of 10% FBS containing DMEM medium, together with the different concentrations of the test compounds ranging from 500 μM to 1.9 μM for PPD and analogues 1-5 and standard in a serial dilution. Then the medium was removed and 100 μl of MTT [3-(4,5-dimethylthiazol-2yl)-2,5-diphenyl-2H-tetrazolium bromide](1 mg/ml) (Alfa Aesar, Singapore) in PBS was added. At the end of 4 h incubation, the plates were removed from the incubator and plates were shaken for 5 min. The absorbance at 570 nm was determined using Bio-Tek plate reader. The cell viability rates were calculated from absorbance readings and represented as percentages of control value (untreated cells).

For series [2], the system named is cysteine peptide (Ac-RFAACAA-COOH). The series can be described thus: Direct Peptide Reactivity Assay, cysteine peptide. To be noted: for % of Cysteine depletion, Avg / % of Cysteine depletion, Rep 2 / % of Cysteine depletion, Rep 3 / Reactivity Class: 1:10; for % of Cysteine depletion, Rep 1: peptide 0.02 mM : test chemical 0.2 mM (1:10); for Reactivity Class: cysteine. As to the method: For cysteine DPRA, an additional step was performed.
(§1) The mass spectrometric analysis was performed by use of a AB SCIEX QTRAP 5500 tandem mass spectrometry (MS/MS) system (AB SCIEX, Framingham, Mass., USA) operating in triple quadrupole positive mode (ESI+) equipped with an AB Sciex Turbo Ion Spray interface. Acquisition and analysis of data were performed with Analyst software ver. 1.6.2 (Applied Biosystems).

For series [3], the system named is lysine peptide (Ac-RFAAKAA-COOH). The series can be described thus: Direct Peptide Reactivity Assay, lysine peptide. As to conditions: for % of Lysine depletion, Avg / % of Lysine depletion, Rep 2 / % of Lysine depletion, Rep 3 / Reactivity Class: 1:50; for % of Lysine depletion, Rep 1: peptide 0.02 mM : test chemical 1 mM (1:50); for Reactivity Class: lysine. As to the method: as §1

Series [4] concerns cysteine and lysine peptides. The series can be described thus: Direct Peptide Reactivity Assay, mean of cysteine and lysine depletion (FIG. 12). To be noted: for Sensitizing potential predicted from mean peptide depletion: cysteine 1:10 / lysine 1:50 model.

In the case of `O=[N+]([O-])c1ccc(Cl)c([N+](=O)[O-])c1` [DNCB, reference compound], in the series with IL-8, the IL-8 expression result is recorded as “increased expression”.
Usually IC50 stands for the concentration that gives 50% inhibition. Low readings indicate inhibition by little substance, high ones a need for much substance. Take `CCCCC(CC)COc1cc(N)ccc1N` (centres unmarked) [PPD derivative 3, 2-((2-ethylhexyl)oxy)benzene-1,4-diamine]: in series [1], the “% Parent compound Penetrated (mean)” value came to 0.00045%; the “% converted to metabolite (mean)” value stood at 0.0123%; the recovery at 8 h, 1 % w/v is 94.5%. Moreover, the “Penetration profile PPD vs derivatives (times less than PPD)” value in series [1] (listed as PPD 3) came out at 360. Besides, half-maximal inhibition in the series on HaCaT cells (Homo sapiens, HaCaT, 72 h) (IC50) required 31 µM. In addition, in series [2] (20 min), the “% of Cysteine depletion, Avg” value came out at 31.9%; the “% of Cysteine depletion, Rep 2” value is 32%; the “% of Cysteine depletion, Rep 3” value was 31.4%; the “% of Cysteine depletion, Rep 1” value is given as 32.4%. For the same compound, in series [2] (24 h), the “% of Cysteine depletion, Avg” value is reported as 32.7%; the “% of Cysteine depletion, Rep 2” value turned out to be 31.7%; the “% of Cysteine depletion, Rep 3” value is given as 31.8%; the “% of Cysteine depletion, Rep 1” value worked out at 34.8%. Also, in series [2] (24 h), the “Reactivity Class” value is “Moderate”. Also, the “Reactivity Class” value in series [2] (20 min, listed as Derivative 3) was “Moderate”. In addition, the “Reactivity Class” value in series [2] (20 min, listed as derivative 3) is on record as “moderate”. Also, in series [3] (20 min), the “% of Lysine depletion, Avg” value worked out at 6.2%; the “% of Lysine depletion, Rep 2” value worked out at 5.63%; the “% of Lysine depletion, Rep 3” value stood at 7.89%; the “% of Lysine depletion, Rep 1” value stood at 5.07%. Further, the “Reactivity Class” value in series [3] (20 min) is “No or Minimal”. In series [3] (24 h), the “% of Lysine depletion, Avg” value was found to be 15.48%; the “% of Lysine depletion, Rep 2” value is reported as 19.7%; the “% of Lysine depletion, Rep 3” value is 13.8%; the “% of Lysine depletion, Rep 1” value is recorded as 12.8%. Besides, the “Reactivity Class” value in series [3] (24 h) is “Low”. Also, the “Sensitizing potential predicted from mean peptide depletion” value (from here on “Sensitizing potential predicted”) in series [4] is recorded as “moderate sensitizer”.
Consider `CCCCCCOc1cc(N)ccc1N` [PPD derivative 4, 2-hexyloxy-1,4-diaminobenzene], for which, in series [1], the “% Parent compound Penetrated (mean)” value turned out to be 0.000322%; the “% converted to metabolite (mean)” value turned out to be 0.0121%; the recovery at 8 h, 1 % w/v came out at 94.3%. Moreover, in series [1] (listed as PPD 4), the “Penetration profile PPD vs derivatives (times less than PPD)” value turned out to be 503.1. Half-maximal inhibition with HaCaT cells (IC50) was put at 34.8 µM. Further, the IC50 in the series on HaCaT cells (Homo sapiens, HaCaT, 72 h) was 34.8 µM. In addition, in series [2] (20 min), the “% of Cysteine depletion, Avg” value was found to be 32.8%; the “% of Cysteine depletion, Rep 2” value turned out to be 31.8%; the “% of Cysteine depletion, Rep 3” value stood at 33.8%; the “% of Cysteine depletion, Rep 1” value was found to be 30.8%. In addition, in series [2] (24 h), the “% of Cysteine depletion, Avg” value worked out at 40.8%; the “% of Cysteine depletion, Rep 2” value is 41%; the “% of Cysteine depletion, Rep 3” value stood at 41.5%; the “% of Cysteine depletion, Rep 1” value is 40%. The “Reactivity Class” value in series [2] (24 h) is listed as “Moderate”. Besides, the “Reactivity Class” value in series [2] (20 min, listed as Derivative 4) is given as “Moderate”. The “Reactivity Class” value in series [2] (20 min, listed as derivative 4) is “moderate”. In addition, in series [3] (20 min), the “% of Lysine depletion, Avg” value came out at 1.1%; the “% of Lysine depletion, Rep 2” value is 0.845%; the “% of Lysine depletion, Rep 3” value is 1.41%; the “% of Lysine depletion, Rep 1” value amounted to 1.13%. In addition, the “Reactivity Class” value in series [3] (20 min) is “No or Minimal”. Besides, in series [3] (24 h), the “% of Lysine depletion, Avg” value amounted to 13.4%; the “% of Lysine depletion, Rep 2” value is 15%; the “% of Lysine depletion, Rep 3” value was determined as 13.9%; the “% of Lysine depletion, Rep 1” value was found to be 11.3%. Besides, the “Reactivity Class” value in series [3] (24 h) is “Low”. The “Sensitizing potential predicted” value in series [4] is on record as “moderate sensitizer”.
Regarding `Cc1ccc(NCc2ccc(Nc3ccc(Nc4ccc(N)cc4)cc3)cc2)cc1` [PPD derivative 10, N^1-[4-(4-tolylaminomethyl)phenyl]-N^4-(4-aminophenyl)-1,4-benzenediamine], in the series on HaCaT cells (Homo sapiens, HaCaT, 72 h), the IC50 stood at 1.8 µM. In addition, the “Sensitizing potential predicted” value in series [4] is given as “weak sensitizer”. In series [4] (mean of cysteine (1:10) and lysine (1:50), FIG. 12), the Mean peptide depletion was determined as 23.0%.
